Results published in paper PMC9848287, “Novel thiazolone-benzenesulphonamide inhibitors of human and bacterial carbonic anhydrases” (Journal of Enzyme Inhibition and Medicinal Chemistry, 2023).

Experiments:
Assay in all cases: stopped-flow CO2 hydrase assay
hCA I = target: T1, hCA I (Homo sapiens, UniProt P00915); assay type: biochemical
T1 construct: gene CA1; recombinant, obtained in-house
Text: stopped-flow CO2 hydrase assay on hCA I

StCA1 = target: T2, StCA1; assay type: biochemical, Salmonella enterica subsp. enterica serovar Typhimurium; settings: CO2 hydration, […] TRIS pH […] Na2SO4, […] min preincubation at room temperature
T2 construct: recombinant, obtained in-house

StCA2 = target: T3, StCA2 (Salmonella enterica, UniProt O30898); assay type: biochemical; settings: CO2 hydration, […] TRIS pH […] Na2SO4, […] min preincubation at room temperature
T3 construct: gene mig-5; recombinant, obtained in-house
T3 sequence (O30898 41-246): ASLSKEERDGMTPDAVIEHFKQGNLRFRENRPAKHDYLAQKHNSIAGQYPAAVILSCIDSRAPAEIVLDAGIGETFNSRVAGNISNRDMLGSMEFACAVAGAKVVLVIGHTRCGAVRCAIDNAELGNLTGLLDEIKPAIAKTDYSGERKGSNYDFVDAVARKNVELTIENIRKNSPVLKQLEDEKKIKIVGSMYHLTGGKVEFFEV

MscCAβ = target: T4, MscCAβ (Mammaliicoccus sciuri, UniProt A0AAJ4SIE8); assay type: biochemical; settings: CO2 hydration, […] TRIS pH […] Na2SO4, […] min preincubation at room temperature
T4 construct: gene OWO77_14055; recombinant, obtained in-house
T4 sequence (A0AAJ4SIE8 1-189): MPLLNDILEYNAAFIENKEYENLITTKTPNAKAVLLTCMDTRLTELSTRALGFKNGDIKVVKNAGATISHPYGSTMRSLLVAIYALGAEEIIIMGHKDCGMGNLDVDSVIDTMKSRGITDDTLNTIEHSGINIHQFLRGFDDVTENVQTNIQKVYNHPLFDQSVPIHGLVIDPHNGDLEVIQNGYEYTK

hCA VII = target: T5, hCA VII (Homo sapiens, UniProt P43166); assay type: biochemical
T5 construct: gene CA7; recombinant, obtained in-house
T5 sequence (P43166 whole entry): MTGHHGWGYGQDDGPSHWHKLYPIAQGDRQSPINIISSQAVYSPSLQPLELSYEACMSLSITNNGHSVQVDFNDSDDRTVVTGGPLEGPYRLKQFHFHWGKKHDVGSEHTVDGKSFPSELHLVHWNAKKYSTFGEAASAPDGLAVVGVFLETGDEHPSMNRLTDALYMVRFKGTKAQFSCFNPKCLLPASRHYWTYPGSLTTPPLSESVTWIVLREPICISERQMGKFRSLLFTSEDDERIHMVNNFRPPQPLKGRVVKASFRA
Text: stopped-flow CO2 hydrase assay on hCA VII

hCA II = target: T6, hCA II (Homo sapiens, UniProt P00918); assay type: biochemical
T6 construct: gene CA2; recombinant, obtained in-house
Text: stopped-flow CO2 hydrase assay on hCA II

T1 sequence (P00915 2-261): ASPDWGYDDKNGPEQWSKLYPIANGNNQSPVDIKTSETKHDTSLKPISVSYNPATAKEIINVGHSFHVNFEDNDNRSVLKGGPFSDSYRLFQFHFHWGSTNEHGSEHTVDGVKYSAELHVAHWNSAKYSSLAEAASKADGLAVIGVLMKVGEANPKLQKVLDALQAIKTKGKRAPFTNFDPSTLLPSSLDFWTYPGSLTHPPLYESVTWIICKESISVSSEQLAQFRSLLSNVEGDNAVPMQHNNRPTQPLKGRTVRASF

Structure (SMILES)	Ki (hCA I) [nM]	Ki (StCA1) [nM]	Ki (StCA2) [nM]	Ki (MscCAβ) [nM]	Ki (hCA VII) [nM]	Ki (hCA II) [nM]
CC(C)C1SC(Nc2ccc(S(N)(=O)=O)cc2)=NC1=O (racemic) [4e, 4-((5-Isopropyl-4-oxo-4,5-dihydrothiazol-2-yl)amino)benzenesulphonamide]	85.4	81.1	867	701	7.5	7.3
CCCCCCC1SC(Nc2ccc(S(N)(=O)=O)cc2)=NC1=O (racemic) [4g, 4-((5-Hexyl-4-oxo-4,5-dihydrothiazol-2-yl)amino)benzenesulphonamide]	637	83.6	4880	4030	14.6	13.7
NS(=O)(=O)c1ccc(NC2=NC(=O)C(c3ccccc3)S2)cc1 (racemic) [4h, 4-((4-Oxo-5-phenyl-4,5-dihydrothiazol-2-yl)amino)benzenesulphonamide]	90.4	163	797	1060	7.3	1.3
CCC1SC(Nc2ccc(S(N)(=O)=O)cc2)=NC1=O (racemic) [4c, 4-((5-Ethyl-4-oxo-4,5-dihydrothiazol-2-yl)amino)benzenesulphonamide]	66.6	86.1	481	411	1.2	3.8
CCCC1SC(Nc2ccc(S(N)(=O)=O)cc2)=NC1=O (racemic) [4d, 4-((4-Oxo-5-propyl-4,5-dihydrothiazol-2-yl)amino)benzenesulphonamide]	70.7	83.3	913	73.6	2	2.3
CC1SC(Nc2ccc(S(N)(=O)=O)cc2)=NC1=O (racemic) [4b, 4-((5-Methyl-4-oxo-4,5-dihydrothiazol-2-yl)amino)benzenesulphonamide]	31.5	89.9	538	481	0.9	4.3
NS(=O)(=O)c1ccc(NC2=NC(=O)C(F)S2)cc1 (racemic) [4j, 4-((5-Fluoro-4-oxo-4,5-dihydrothiazol-2-yl)amino)benzenesulphonamide]	138	90.9	956	849	1.9	3.7
CCCCC1SC(Nc2ccc(S(N)(=O)=O)cc2)=NC1=O (racemic) [4f, 4-((5-Butyl-4-oxo-4,5-dihydrothiazol-2-yl)amino)benzenesulphonamide]	75	72.4	904	2420	6.2	3.2
NS(=O)(=O)c1ccc(NC2=NC(=O)CS2)cc1 [4a, 4-((4-Oxo-4,5-dihydrothiazol-2-yl)amino)benzenesulphonamide]	–	82.4	275	787	1.4	–
NS(=O)(=O)c1ccc(NC2=NC(=O)C(CCBr)S2)cc1 (racemic) [4i, 4-((5-(2-Bromoethyl)-4-oxo-4,5-dihydrothiazol-2-yl)amino)benzenesulphonamide]	74.6	69.2	515	925	2.1	2.2
